Drawing on patent publication US12559529B2, “NPY2 receptor agonists” (Boehringer Ingelheim International GmbH, priority 2019, dated 2026), this text covers Ki for 5 molecules.

*1 amine or outer side, *2 acyl side, *3 side chain or, on linkers, in order; H or OH if unused. Where a SMILES comes first, the peptide text is derived from it. Side-chain parts run from the residue outwards. The star is where a group is joined. C18 diacid = O=C(O)CCCCCCCCCCCCCCCCC(=O)*; γGlu = O=C(O)[C@H](CCC(=O)[*:2])N[*:1]; Isovaleryl = CC(C)CC(=O)*; AEEA = NCCOCCOCC(=O)O

The term Ki denotes the dissociation constant of the complex between target and ligand, obtained from inhibition or displacement.

This experiment deals with T1, Human Neuropeptide Y2 Receptor (Homo sapiens, UniProt P49146).
T1 construct: purchased CHEMICON HTS066M
T1 sequence (P49146 1-381): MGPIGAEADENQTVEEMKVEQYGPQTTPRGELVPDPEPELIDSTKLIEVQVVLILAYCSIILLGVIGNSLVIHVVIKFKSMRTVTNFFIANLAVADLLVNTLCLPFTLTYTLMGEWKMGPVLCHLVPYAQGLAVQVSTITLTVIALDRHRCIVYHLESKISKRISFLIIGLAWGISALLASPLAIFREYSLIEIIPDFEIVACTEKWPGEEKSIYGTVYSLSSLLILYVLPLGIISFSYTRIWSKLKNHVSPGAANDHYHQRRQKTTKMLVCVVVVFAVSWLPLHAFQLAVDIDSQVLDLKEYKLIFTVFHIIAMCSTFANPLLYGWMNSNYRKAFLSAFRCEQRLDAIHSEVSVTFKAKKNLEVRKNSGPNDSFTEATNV
In words: Radioligand binding competition assay (RLB). The conditions noted are these: Table 3; human 125I-PYY (1-36) 0.02 nM, Y2 receptor membranes; read-out: Ki. As to the method:
The filtration RLB assay was carried out in 96-well plates in a final volume of 100 μl per well. Freeze-dried test peptides were dissolved in 100% dimethyl sulfoxide (DMSO) to stock solutions of 1 mM and serial dilutions were performed in assay buffer (50 mM HEPES, 5 mM MgCl2, 1 mM CaCl2), pH 7.4) containing 0.2% ovalbumin. […] Next, 80 μL membranes (HTS066M, ChemiSCREEN™ Human Neuropeptide Y2 Receptor Membrane Preparation, CHEMICON) were added to each well to give a final protein concentration of 0.5 μg/well. The plates were sealed and incubated at room temperature for 2 hours in a plate shaker set at 400 rpm. The incubation was stopped by vacuum filtration onto 0.5% poly-ethylene amine (PEI) presoaked GF/C filters using a 96-well FilterMate™ harvester (Perkin Elmer) followed by four washes with 300 μl/well ice-cold wash buffer (50 mM HEPES, 500 mM NaCl, pH7.4). Filter plates were then dried for 60 min at room temperature and the bottom of the plates was sealed with backing tape UniFilter-96. Finally, 50 μl/well scintillation counter cocktail (Microscint20, Packard) was added and the radioactivity was counted in the Packard TopCount NXT scintillation counter. IC50 values (the half maximal inhibitory concentration of the agonist) were calculated by nonlinear regression analysis of sigmoidal dose-response curves.
For `CC(C)CC(=O)N[C@@H](C)C(=O)N1CCC[C@H]1C(=O)N[C@@H](CCC(=O)O)C(=O)N[C@@H](CCCCNC(=O)COCCOCCNC(=O)COCCOCCNC(=O)CC[C@H](NC(=O)CCCCCCCCCCCCCCCCC(=O)O)C(=O)O)C(=O)N1CCC[C@H]1C(=O)N[C@@H](CCC(=O)O)C(=O)N[C@@H](CCC(=O)O)C(=O)N[C@@H](CC(=O)O)C(=O)N[C@@H](C)C(=O)N[C@@H](CO)C(=O)N1CCC[C@H]1C(=O)N[C@@H](C)C(=O)N[C@@H](CCC(=O)O)C(=O)N[C@@H](CC(C)C)C(=O)N[C@@H](CCC(N)=O)C(=O)N[C@@H](CCCNC(=N)N)C(=O)N[C@@H](Cc1ccc(O)cc1)C(=O)N[C@@H](Cc1ccc(O)cc1)C(=O)N[C@H](C(=O)N[C@@H](CO)C(=O)N[C@@H](CC(C)C)C(=O)N[C@@H](CCCNC(=N)N)C(=O)N[C@@H](Cc1c[nH]cn1)C(=O)N[C@@H](Cc1ccc(O)cc1)C(=O)N[C@@H](Cc1ccc(O)cc1)C(=O)N[C@@H](CC(N)=O)C(=O)N[C@@H](Cc1c[nH]c2ccccc12)C(=O)N[C@@H](CC(C)C)C(=O)N[C@H](C(=O)N[C@@H](CCCNC(=N)N)C(=O)N[C@@H](CCC(N)=O)C(=O)N[C@@H](CCCNC(=N)N)C(=O)N[C@@H](Cc1ccc(O)cc1)C(N)=O)[C@@H](C)O)C(C)C` [Compound 17, N{alpha-4}-(3-methylbutanoyl)-N{epsilon-7}-[2-(2-{2-[2-(2-{2-[(4S)-4-carboxy-4-(17-carboxyheptadecanamido)butanamido]ethoxy}ethoxy)acetamido]ethoxy}ethoxy)acetamido]-[4A,7K,9E,15A,18Q,22V,28Y,30W,31L]hPYY (4-36)], the inhibitory constant (Ki) came out at 0.93 nM. Consider `CC(C)CC(=O)N[C@@H](C)C(=O)N1CCC[C@H]1C(=O)N[C@@H](CCC(=O)O)C(=O)N[C@@H](CCCCNC(=O)COCCOCCNC(=O)COCCOCCNC(=O)CC[C@H](NC(=O)CCCCCCCCCCCCCCCCC(=O)O)C(=O)O)C(=O)N1CCC[C@H]1C(=O)N[C@@H](CCC(=O)O)C(=O)N[C@@H](C)C(=O)N[C@@H](CC(=O)O)C(=O)N[C@@H](C)C(=O)N[C@@H](CO)C(=O)N1CCC[C@H]1C(=O)N[C@@H](CCC(=O)O)C(=O)N[C@@H](CCC(=O)O)C(=O)N[C@@H](CC(C)C)C(=O)N[C@@H](CCC(N)=O)C(=O)N[C@@H](CCC(N)=O)C(=O)N[C@@H](Cc1ccc(O)cc1)C(=O)N[C@@H](Cc1ccc(O)cc1)C(=O)N[C@H](C(=O)N[C@@H](CO)C(=O)N[C@@H](CC(C)C)C(=O)N[C@@H](CCCNC(=N)N)C(=O)N[C@@H](Cc1c[nH]cn1)C(=O)N[C@@H](Cc1ccc(O)cc1)C(=O)N[C@@H](Cc1ccc(O)cc1)C(=O)N[C@@H](CC(N)=O)C(=O)N[C@@H](Cc1c[nH]c2ccccc12)C(=O)N[C@@H](CC(C)C)C(=O)N[C@H](C(=O)N[C@@H](CCCNC(=N)N)C(=O)N[C@@H](CCC(N)=O)C(=O)N[C@@H](CCCNC(=N)N)C(=O)N[C@@H](Cc1ccc(O)cc1)C(N)=O)[C@@H](C)O)C(C)C` [Compound 19, N{alpha-4}-(3-methylbutanoyl)-N{epsilon-7}-[2-(2-{2-[2-(2-{2-[(4S)-4-carboxy-4-(17-carboxyheptadecanamido)butanamido]ethoxy}ethoxy)acetamido]ethoxy}ethoxy)acetamido]-[4A,7K,9E,10A,18Q,19Q,22V,28Y,30W,31L]hPYY (4-36)] (Isovaleryl-APEK([AEEA-AEEA-γGlu-C18 diacid])PEADASPEELQQYYVSLRHYYNWLTRQRY-NH2), for which the inhibition constant Ki turned out to be 0.39 nM.

On to `CC(C)CC(=O)N[C@@H](C)C(=O)N1CCC[C@H]1C(=O)N[C@@H](CCC(=O)O)C(=O)N[C@@H](CCCCNC(=O)COCCOCCNC(=O)COCCOCCNC(=O)CC[C@H](NC(=O)CCCCCCCCCCCCCCCCC(=O)O)C(=O)O)C(=O)N1CCC[C@H]1C(=O)N[C@@H](CCC(=O)O)C(=O)N[C@@H](CCC(=O)O)C(=O)N[C@@H](CC(=O)O)C(=O)N[C@@H](C)C(=O)N[C@@H](C)C(=O)N1CCC[C@H]1C(=O)N[C@@H](CCC(=O)O)C(=O)N[C@@H](CCC(=O)O)C(=O)N[C@@H](CC(C)C)C(=O)N[C@@H](CCC(N)=O)C(=O)N[C@@H](CCCNC(=N)N)C(=O)N[C@@H](Cc1ccc(O)cc1)C(=O)N[C@@H](Cc1ccc(O)cc1)C(=O)N[C@H](C(=O)N[C@@H](CCC(=O)O)C(=O)N[C@@H](CC(C)C)C(=O)N[C@@H](CCCNC(=N)N)C(=O)N[C@@H](Cc1c[nH]cn1)C(=O)N[C@@H](Cc1ccc(O)cc1)C(=O)N[C@@H](Cc1ccc(O)cc1)C(=O)N[C@@H](CC(N)=O)C(=O)N[C@@H](Cc1c[nH]c2ccccc12)C(=O)N[C@@H](CC(C)C)C(=O)N[C@H](C(=O)N[C@@H](CCCNC(=N)N)C(=O)N[C@@H](CCC(N)=O)C(=O)N[C@@H](CCCNC(=N)N)C(=O)N[C@@H](Cc1ccc(O)cc1)C(N)=O)[C@@H](C)O)C(C)C` [Compound 20, N{alpha-4}-(3-methylbutanoyl)-N{epsilon-7}-[2-(2-{2-[2-(2-{2-[(4S)-4-carboxy-4-(17-carboxyheptadecanamido)butanamido]ethoxy}ethoxy)acetamido]ethoxy}ethoxy)acetamido]-[4A,7K,9E,13A,18Q,22V,23E,28Y,30W,31L]hPYY (4-36)], for which the Ki came out at 2.57 nM. In the case of `CC(C)CC(=O)N[C@@H](C)C(=O)N1CCC[C@H]1C(=O)N[C@@H](CCC(=O)O)C(=O)N[C@@H](CCCCNC(=O)COCCOCCNC(=O)COCCOCCNC(=O)CC[C@H](NC(=O)CCCCCCCCCCCCCCCCC(=O)O)C(=O)O)C(=O)N1CCC[C@H]1C(=O)N[C@@H](CCC(=O)O)C(=O)N[C@@H](CCC(=O)O)C(=O)N[C@@H](CC(=O)O)C(=O)N[C@@H](C)C(=O)N[C@@H](CO)C(=O)N1CCC[C@H]1C(=O)N[C@@H](CCC(=O)O)C(=O)N[C@@H](CCC(=O)O)C(=O)N[C@@H](CC(C)C)C(=O)N[C@@H](CCC(N)=O)C(=O)N[C@@H](CCCNC(=N)N)C(=O)N[C@@H](Cc1ccc(O)cc1)C(=O)N[C@@H](Cc1ccc(O)cc1)C(=O)N[C@H](C(=O)N[C@@H](CO)C(=O)N[C@@H](CC(C)C)C(=O)N[C@@H](CCCNC(=N)N)C(=O)N[C@@H](CCCCN)C(=O)N[C@@H](Cc1ccc(O)cc1)C(=O)N[C@@H](Cc1ccc(O)cc1)C(=O)N[C@@H](CC(N)=O)C(=O)N[C@@H](Cc1c[nH]c2ccccc12)C(=O)N[C@@H](CC(C)C)C(=O)N[C@H](C(=O)N[C@@H](CCCNC(=N)N)C(=O)N[C@@H](CCC(N)=O)C(=O)N[C@@H](CCCNC(=N)N)C(=O)N[C@@H](Cc1ccc(O)cc1)C(N)=O)[C@@H](C)O)C(C)C` [Compound 24, N{alpha-4}-(3-methylbutanoyl)-N{epsilon-7}-[2-(2-{2-[2-(2-{2-[(4S)-4-carboxy-4-(17-carboxyheptadecanamido)butanamido]ethoxy}ethoxy)acetamido]ethoxy}ethoxy)acetamido]-[4A,7K,9E,18Q,22V,26K,28Y,30W,31L]hPYY (4-36)], the Ki came out at 2.22 nM. As to `CC(C)CC(=O)N[C@@H](C)C(=O)N1CCC[C@H]1C(=O)N[C@@H](CCC(=O)O)C(=O)N[C@@H](CCCCNC(=O)COCCOCCNC(=O)COCCOCCNC(=O)CC[C@H](NC(=O)CCCCCCCCCCCCCCCCC(=O)O)C(=O)O)C(=O)N1CCC[C@H]1C(=O)N[C@@H](CCC(=O)O)C(=O)N[C@@H](CCC(=O)O)C(=O)N[C@@H](CCC(=O)O)C(=O)N[C@@H](C)C(=O)N[C@@H](CO)C(=O)N[C@@H](C)C(=O)N[C@@H](CCC(=O)O)C(=O)N[C@@H](CCC(=O)O)C(=O)N[C@@H](CC(C)C)C(=O)N[C@@H](CCC(N)=O)C(=O)N[C@@H](CCCNC(=N)N)C(=O)N[C@@H](Cc1ccc(O)cc1)C(=O)N[C@@H](Cc1ccc(O)cc1)C(=O)N[C@H](C(=O)N[C@@H](CO)C(=O)N[C@@H](CC(C)C)C(=O)N[C@@H](CCCNC(=N)N)C(=O)N[C@@H](Cc1c[nH]cn1)C(=O)N[C@@H](Cc1ccc(O)cc1)C(=O)N[C@@H](Cc1ccc(O)cc1)C(=O)N[C@@H](CC(N)=O)C(=O)N[C@@H](Cc1c[nH]c2ccccc12)C(=O)N[C@@H](CC(C)C)C(=O)N[C@H](C(=O)N[C@@H](CCCNC(=N)N)C(=O)N[C@@H](CCC(N)=O)C(=O)N[C@@H](CCCNC(=N)N)C(=O)N[C@@H](Cc1ccc(O)cc1)C(N)=O)[C@@H](C)O)C(C)C` [Compound 25, N{alpha-4}-(3-methylbutanoyl)-N{epsilon-7}-[2-(2-{2-[2-(2-{2-[(4S)-4-carboxy-4-(17-carboxyheptadecanamido)butanamido]ethoxy}ethoxy)acetamido]ethoxy}ethoxy)acetamido]-[4A,7K,9E,11E,14A,18Q,22V,28Y,30W,31L]hPYY (4-36)], the Ki was 4.36 nM.
